Measurements: ChEMBL document CHEMBL5291721, “A preclinical secondary pharmacology resource illuminates target-adverse drug reaction associations of marketed drugs” (Nat Commun, 2023)

Assays:
Thromboxane A2 receptor [1] = target: T1, Thromboxane A2 receptor (Homo sapiens, UniProt P21731); assay type: functional, cell-based
T1 sequence (P21731 whole entry): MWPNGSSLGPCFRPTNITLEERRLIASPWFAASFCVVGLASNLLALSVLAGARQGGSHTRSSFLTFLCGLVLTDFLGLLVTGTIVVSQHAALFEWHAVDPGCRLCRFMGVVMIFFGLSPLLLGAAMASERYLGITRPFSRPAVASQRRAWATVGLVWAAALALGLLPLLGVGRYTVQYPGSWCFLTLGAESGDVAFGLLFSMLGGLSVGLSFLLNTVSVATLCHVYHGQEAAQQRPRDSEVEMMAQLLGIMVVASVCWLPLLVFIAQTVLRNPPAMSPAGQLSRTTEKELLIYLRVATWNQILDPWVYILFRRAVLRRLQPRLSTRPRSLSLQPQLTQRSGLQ

[2] = target: Synaptic vesicular amine transporter (Rattus norvegicus, UniProt Q01827); assay type: functional
Sequence of Synaptic vesicular amine transporter (Q01827 whole entry): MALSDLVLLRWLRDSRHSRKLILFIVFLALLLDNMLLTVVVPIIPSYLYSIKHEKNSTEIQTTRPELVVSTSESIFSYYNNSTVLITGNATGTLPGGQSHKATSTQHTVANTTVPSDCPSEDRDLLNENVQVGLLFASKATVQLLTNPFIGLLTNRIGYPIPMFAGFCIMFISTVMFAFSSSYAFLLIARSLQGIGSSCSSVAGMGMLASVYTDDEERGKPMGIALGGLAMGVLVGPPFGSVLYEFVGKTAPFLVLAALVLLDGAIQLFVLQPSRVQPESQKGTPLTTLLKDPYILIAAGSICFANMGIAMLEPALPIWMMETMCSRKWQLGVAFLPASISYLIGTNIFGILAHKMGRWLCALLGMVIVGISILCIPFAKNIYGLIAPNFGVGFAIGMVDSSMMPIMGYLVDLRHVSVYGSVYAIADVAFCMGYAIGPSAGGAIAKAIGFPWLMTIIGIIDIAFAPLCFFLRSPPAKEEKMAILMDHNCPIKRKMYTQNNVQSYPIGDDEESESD

Androgen receptor = target: T2, Androgen receptor (Rattus norvegicus, UniProt P15207); assay type: functional
T2 sequence (P15207 whole entry): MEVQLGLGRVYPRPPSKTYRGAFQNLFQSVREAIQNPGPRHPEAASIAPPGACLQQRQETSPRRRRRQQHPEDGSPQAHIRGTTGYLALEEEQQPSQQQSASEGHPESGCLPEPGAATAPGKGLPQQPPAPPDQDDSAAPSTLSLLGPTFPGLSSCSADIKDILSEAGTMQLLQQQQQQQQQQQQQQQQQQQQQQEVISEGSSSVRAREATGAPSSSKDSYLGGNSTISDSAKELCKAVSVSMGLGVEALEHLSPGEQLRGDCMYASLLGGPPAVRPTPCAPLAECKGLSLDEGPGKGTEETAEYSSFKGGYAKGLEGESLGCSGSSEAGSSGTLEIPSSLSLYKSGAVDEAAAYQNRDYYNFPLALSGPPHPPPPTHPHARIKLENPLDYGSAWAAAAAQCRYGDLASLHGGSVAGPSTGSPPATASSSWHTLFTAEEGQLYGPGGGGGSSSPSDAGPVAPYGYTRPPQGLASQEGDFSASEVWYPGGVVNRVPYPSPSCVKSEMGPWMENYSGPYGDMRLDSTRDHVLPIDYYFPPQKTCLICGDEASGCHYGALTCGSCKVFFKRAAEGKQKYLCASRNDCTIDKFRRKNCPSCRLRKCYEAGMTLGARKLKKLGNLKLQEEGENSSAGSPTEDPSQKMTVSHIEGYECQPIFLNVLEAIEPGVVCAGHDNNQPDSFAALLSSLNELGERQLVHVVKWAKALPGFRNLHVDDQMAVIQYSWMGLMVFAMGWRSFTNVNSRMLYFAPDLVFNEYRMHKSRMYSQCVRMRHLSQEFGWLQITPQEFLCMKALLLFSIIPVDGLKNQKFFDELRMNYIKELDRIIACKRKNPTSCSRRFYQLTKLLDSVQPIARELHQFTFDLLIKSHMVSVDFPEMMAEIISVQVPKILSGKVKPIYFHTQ

Thromboxane A2 receptor [3] = target: T1, Thromboxane A2 receptor; assay type: functional
D(1A) dopamine receptor = D(1A) dopamine receptor (Homo sapiens, UniProt P21728); assay type: functional, cell-based
Sequence of D(1A) dopamine receptor (P21728 whole entry): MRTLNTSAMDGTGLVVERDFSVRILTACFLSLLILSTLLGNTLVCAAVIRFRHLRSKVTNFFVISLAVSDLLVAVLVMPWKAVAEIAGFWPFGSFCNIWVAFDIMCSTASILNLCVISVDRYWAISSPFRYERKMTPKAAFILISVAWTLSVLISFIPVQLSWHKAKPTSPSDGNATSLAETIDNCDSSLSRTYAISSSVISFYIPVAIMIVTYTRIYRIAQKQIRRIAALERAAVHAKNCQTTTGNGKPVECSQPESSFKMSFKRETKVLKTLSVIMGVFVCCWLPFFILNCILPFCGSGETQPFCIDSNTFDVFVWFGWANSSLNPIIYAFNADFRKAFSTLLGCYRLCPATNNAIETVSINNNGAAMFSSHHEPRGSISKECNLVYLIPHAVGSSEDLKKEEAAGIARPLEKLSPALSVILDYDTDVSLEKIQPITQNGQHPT

Acetylcholinesterase = Acetylcholinesterase (Homo sapiens, UniProt P22303); assay type: functional
Sequence of Acetylcholinesterase (P22303 whole entry): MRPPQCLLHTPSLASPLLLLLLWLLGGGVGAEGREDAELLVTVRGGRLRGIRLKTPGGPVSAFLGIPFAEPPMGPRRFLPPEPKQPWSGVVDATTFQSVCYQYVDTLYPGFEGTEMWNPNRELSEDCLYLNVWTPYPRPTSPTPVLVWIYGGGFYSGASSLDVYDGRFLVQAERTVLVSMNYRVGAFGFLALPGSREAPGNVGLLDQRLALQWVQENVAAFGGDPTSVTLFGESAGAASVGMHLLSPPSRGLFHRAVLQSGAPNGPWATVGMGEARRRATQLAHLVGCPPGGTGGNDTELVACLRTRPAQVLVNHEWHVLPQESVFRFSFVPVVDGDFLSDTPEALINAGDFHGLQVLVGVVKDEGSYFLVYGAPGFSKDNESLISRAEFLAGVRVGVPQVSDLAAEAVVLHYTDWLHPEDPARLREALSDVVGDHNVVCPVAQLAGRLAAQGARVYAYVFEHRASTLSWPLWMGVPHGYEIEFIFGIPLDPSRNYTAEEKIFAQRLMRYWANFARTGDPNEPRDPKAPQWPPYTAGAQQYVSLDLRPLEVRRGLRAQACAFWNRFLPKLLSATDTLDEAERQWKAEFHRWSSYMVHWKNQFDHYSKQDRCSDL

[4] = target: Beta-3 adrenergic receptor (Homo sapiens, UniProt P13945)
Sequence of Beta-3 adrenergic receptor (P13945 whole entry): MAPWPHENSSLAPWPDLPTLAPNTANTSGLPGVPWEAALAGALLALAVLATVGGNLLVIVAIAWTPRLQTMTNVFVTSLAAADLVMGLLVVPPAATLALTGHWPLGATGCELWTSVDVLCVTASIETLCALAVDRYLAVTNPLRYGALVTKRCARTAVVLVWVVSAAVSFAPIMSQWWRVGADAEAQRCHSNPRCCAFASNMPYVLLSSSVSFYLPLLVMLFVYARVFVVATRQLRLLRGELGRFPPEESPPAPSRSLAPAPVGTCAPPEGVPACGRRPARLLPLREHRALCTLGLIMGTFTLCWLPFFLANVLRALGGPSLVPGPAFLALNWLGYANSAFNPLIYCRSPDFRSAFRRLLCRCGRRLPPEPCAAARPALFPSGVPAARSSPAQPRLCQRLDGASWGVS

[5] = target: 5-hydroxytryptamine receptor 2B (Homo sapiens, UniProt P41595)
Sequence of 5-hydroxytryptamine receptor 2B (P41595 whole entry): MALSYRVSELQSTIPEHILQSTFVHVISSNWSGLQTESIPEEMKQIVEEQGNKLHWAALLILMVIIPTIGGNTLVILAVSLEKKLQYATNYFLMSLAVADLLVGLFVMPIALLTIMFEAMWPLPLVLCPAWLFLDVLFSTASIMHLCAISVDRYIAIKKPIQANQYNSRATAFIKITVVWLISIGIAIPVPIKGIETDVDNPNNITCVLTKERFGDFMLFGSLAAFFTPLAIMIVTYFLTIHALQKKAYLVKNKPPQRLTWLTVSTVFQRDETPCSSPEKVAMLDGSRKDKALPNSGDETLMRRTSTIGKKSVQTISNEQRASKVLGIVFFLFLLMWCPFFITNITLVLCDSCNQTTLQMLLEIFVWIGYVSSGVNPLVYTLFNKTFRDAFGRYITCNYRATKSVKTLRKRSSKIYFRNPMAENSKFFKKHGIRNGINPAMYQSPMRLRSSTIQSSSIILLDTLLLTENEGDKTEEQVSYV

[6] = target: T3, Neuropeptide Y receptor type 2 (Homo sapiens, UniProt P49146)
T3 sequence (P49146 whole entry): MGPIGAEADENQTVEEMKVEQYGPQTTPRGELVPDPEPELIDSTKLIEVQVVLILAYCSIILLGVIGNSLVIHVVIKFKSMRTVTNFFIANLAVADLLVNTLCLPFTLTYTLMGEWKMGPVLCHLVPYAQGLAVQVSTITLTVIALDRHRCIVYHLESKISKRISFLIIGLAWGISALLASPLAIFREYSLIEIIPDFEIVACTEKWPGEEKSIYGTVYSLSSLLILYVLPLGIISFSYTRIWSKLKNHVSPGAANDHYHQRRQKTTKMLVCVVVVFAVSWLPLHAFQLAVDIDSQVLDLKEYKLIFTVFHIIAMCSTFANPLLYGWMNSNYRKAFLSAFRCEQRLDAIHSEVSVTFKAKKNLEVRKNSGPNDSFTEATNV

[7] = target: T4, Corticotropin-releasing factor receptor 1 (Homo sapiens, UniProt P34998)
T4 sequence (P34998 whole entry): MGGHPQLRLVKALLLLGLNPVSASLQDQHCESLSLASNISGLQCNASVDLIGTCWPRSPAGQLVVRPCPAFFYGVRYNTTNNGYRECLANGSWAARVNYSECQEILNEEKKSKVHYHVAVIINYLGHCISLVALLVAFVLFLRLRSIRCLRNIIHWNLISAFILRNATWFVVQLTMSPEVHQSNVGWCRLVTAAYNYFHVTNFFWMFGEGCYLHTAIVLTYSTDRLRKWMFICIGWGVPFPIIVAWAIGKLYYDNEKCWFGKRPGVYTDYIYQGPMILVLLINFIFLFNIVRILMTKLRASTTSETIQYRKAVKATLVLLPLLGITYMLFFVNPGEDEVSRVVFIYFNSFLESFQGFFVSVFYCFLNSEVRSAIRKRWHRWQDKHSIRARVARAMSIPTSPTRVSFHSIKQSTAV

[8] = target: T5, Endothelin receptor type B (Homo sapiens, UniProt P24530)
T5 sequence (P24530 whole entry): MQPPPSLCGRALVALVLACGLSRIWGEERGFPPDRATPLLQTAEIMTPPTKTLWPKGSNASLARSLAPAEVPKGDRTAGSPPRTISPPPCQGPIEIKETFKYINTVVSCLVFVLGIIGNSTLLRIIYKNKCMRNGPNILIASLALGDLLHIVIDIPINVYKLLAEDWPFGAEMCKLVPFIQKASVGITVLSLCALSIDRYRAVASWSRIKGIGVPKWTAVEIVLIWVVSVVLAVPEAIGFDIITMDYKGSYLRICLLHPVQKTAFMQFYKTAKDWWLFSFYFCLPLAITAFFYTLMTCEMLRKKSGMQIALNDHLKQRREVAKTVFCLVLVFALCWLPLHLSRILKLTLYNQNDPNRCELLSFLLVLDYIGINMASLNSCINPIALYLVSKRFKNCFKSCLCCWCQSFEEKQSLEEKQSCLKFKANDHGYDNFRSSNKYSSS
Also: assay procedure not described here.

For `Cn1cnc2c(F)c(Nc3ccc(Br)cc3F)c(C(=O)NOCCO)cc21` [BINIMETINIB], the AC50 (Thromboxane A2 receptor [1]) was > 30 µM, the AC50 [2] was > 30 µM and the AC50 (Androgen receptor) was > 30 µM. The AC50 (Thromboxane A2 receptor [3]) was > 30 µM, the AC50 (D(1A) dopamine receptor) was > 30 µM and the AC50 (Acetylcholinesterase) was > 30 µM.
With `NCC1(CC(=O)O)CCCCC1` [GABAPENTIN] the AC50 (Thromboxane A2 receptor [1]) was > 30 µM, the AC50 [4] was > 30 µM and the AC50 [5] was > 10 µM. For the same molecule, the AC50 [6] was > 30 µM, the AC50 (Thromboxane A2 receptor [3]) was > 30 µM and the AC50 (D(1A) dopamine receptor) was > 30 µM. For the same molecule, the AC50 [7] was > 30 µM, the AC50 (Acetylcholinesterase) was > 30 µM and the AC50 [8] was > 30 µM.
